Data set [1] relates to rats. As to the kind of experiment: Sedative studies in rats (0-4 sedation score). The class given is in vivo, rat. As to the method: The relative potency of fospropofol given via different administration routes was investigated in rats, using sedation as an end point. Intravenous fospropofol doses of 5-40 mg/kg were chosen based on previous studies (Schywalsky, et al., 2003). Based on expected lower oral bioavailability, doses of 100-400 mg/kg were chosen for the PO and ID studies. Following administration of fospropofol, two experimental observers blinded to the treatment, graded the behavior of the rats (n=2-3 per experimental group) every 5 min for a total of 120 min after administration. […] Scores were averaged across treatment groups per time point.

Data set [2] concerns rat chronic constrictive injury model of neuropathic pain. The data set can be described thus: Neuropathic pain studies in rats (thermal hyperalgesia, withdrawal latency). The class given is in vivo. The following applies: for alleviation of thermal hyperalgesia: 45-60 min post-dose; for time course of analgesic effect: tested 1, 2 and 4 h after dosing. As to the method: This study was performed as previously described (Vornov, et al., 2013). In brief, male Sprague-Dawley rats (200-250 g) were anesthetized with halothane. The common sciatic nerve on one hind limb was exposed by separating the biceps femoris from the gluteus superficialis. The nerve was subsequently isolated from the surrounding tissue and four ligatures (4.0 chromic gut) were tied loosely around it with about 1-mm spacing. On the other hind limb of the rat, the nerve was similarly isolated but no ligatures were placed, (sham surgery). Thermal pain sensitivity was evaluated using a plantar test apparatus according to previous methods (Hargreaves, et al., 1988). In brief, this involved applying a constant infrared stimulus to the plantar surface of the hind paw using a Basile Plantar apparatus (Ugo Basile, Vaarese, Italy). Withdrawal latency was measured as the time taken for the rat to withdraw its paw from the heat source to the nearest 0.1 s. The “difference score” was calculated by subtracting the average latency of the non-ligated versus ligated side. Animals were habituated to the test chambers (clear plastic compartment maintained in a quiet room) for several hours over 3-4 days, prior to any measurement. Baseline hyperalgesia was recorded 10-12 days post-surgery after the habituation. On test day, each animal received either fospropofol (50, 75 or 100 mg/kg) or vehicle (distilled water) via oral gavage in a volume of 2 mL/kg in a randomized and blinded fashion. Withdrawal latency measurements were then recorded five times for both the operated and sham hind paws of each rat starting from 45 to 60 min post dose. The final latency measurement represents a mean of the last four out of a total of five responses, each being taken at least 5 min apart on the same paw. The difference in response latency for each rat for each leg was calculated and used to determine the mean latency difference response time for each group.

Data set [3] can be described thus: Intranasal fospropofol in rats: plasma and brain levels. It is filed as in vivo, rat.
The conditions of data set [4]: IV lipid emulsion, animals; cited from earlier work.
The test system of data set [5] is patients. Particulars: anesthetic induction doses; cited from earlier work.

“Also recorded” adds a separate entry of the source. A value given as a limit tells only on which side of the number the result lay.

For `CC(C)c1cccc(C(C)C)c1OCOP(=O)(O)O` [fospropofol], in data set [1] (ID), the “dose inducing full sedation (average score 3.5 or higher)” value (from here on “dose inducing full sedation”) was 50 mg/kg and the “onset of sedation after administration” value is reported as at most 5 min. For the same molecule, the “dose inducing full sedation” value in data set [1] (IV) is reported as 40 mg/kg. Also, in data set [1] (IV 10-40 mg/kg), the “onset of sedative effects” value is given as at most 1 min and the “sedative effects abated after infusion” value is given as at most 30 min. In data set [1] (PO), the “dose inducing full sedation” value was 300 to 400 mg/kg and the “onset of sedated behavior after dosing” value is 5 to 10 min. Moreover, in data set [1] (PO 100-200 mg/kg), the degree of sedation result is reported as “mild to moderate sedation” and the duration of sedation was in the range of 1 to 2 h. Further, the “duration of loss of consciousness” value in data set [1] (PO 300 and 400 mg/kg) is given as at most 1 h. For the same molecule, in data set [2] (75 mg/kg PO), the “alleviation of thermal hyperalgesia” value was “active in alleviating thermal hyperalgesia; also recorded: effective in reducing hyperalgesia” and the “time course of analgesic effect” value was “losing activity by 2 h”. In data set [2] (75 mg/kg PO, listed as Fospropofol), the “time course of analgesic effect” value is “effective only when tested at 1 h”. Besides, the “alleviation of thermal hyperalgesia” value in data set [2] (100 mg/kg PO) is reported as “active in alleviating thermal hyperalgesia; also recorded: effective in reducing hyperalgesia”. Further, in data set [2] (1 hour after oral fospropofol), the “absolute latency of the ligated side vs vehicle” value was “dose dependent increase”. Moreover, in data set [2] (PO fospropofol), the “withdrawal latency on sham (non-ligated) side vs vehicle” value was “no change in latencies; also recorded: did not change”. The “fospropofol in plasma after intranasal fospropofol” value in data set [3] is recorded as “appreciable plasma concentrations”.
With `CC(C)c1cccc(C(C)C)c1O` [propofol, 2,6-diisopropylphenol], in data set [4], the “extraction by the liver” value is recorded as 80%. The “patients with respiratory consequences (reduction in tidal volume, apnea)” value in data set [5] is “up to 83%”.

(Values after patent publication US11331271B2, “Buccal, sublingual and intranasal delivery of fospropofol” (The Johns Hopkins University, priority 2016, dated 2022).)
